Laboratory results as given in patent US20180263860A1, “DELIVERY SYSTEMS FOR APPLICATION OF ANTIBIOTIC GEL FORMULATION” (Indiana University Research and Technology Corporation, priority 2015, published 2018).
Entries after “also recorded” stand apart in the source; their conditions may differ.

Experiments:
[1] = system: stem cells from apical papillae and dental pulp stem cells; conditions: 2% CHX; recent in vitro studies; cited from earlier work
[2] = system: three-week old E. faecalis biofilm; assay: Biofilm disruption assay on infected dentin samples (Example 2); format: cell-based, Enterococcus faecalis; conditions: immersion for 5 minutes
Procedure: Unidentified intact human teeth were collected, stored in 0.1% thymol solution at 4° C., and used within 6 months after obtaining local Institutional Review Board approval (IRB #1409251353). A standardized radicular dentin sample (4×4×1 mm^3) was obtained from each root using a slow diamond saw (IsoMet, Buehler, Lake Bluff, Ill.) under continuous distilled water irrigation. The pulpal side of each specimen was wet-finished with silicon carbide abrasive papers (500-2400 grit, Struers, Cleveland, Ohio). The polished samples were then sonicated in deionized water for 3 minutes, washed with sterile water, wrapped individually with moist cotton pellets, placed in Whirl-pak bags (Sigma-Aldrich, St Louis, Mo.), gas sterilized with ethylene oxide, and stored at 4° C. until used. E. faecalis (ATCC 29212) was grown initially on anaerobic blood agar plates (CDC, BioMerieux, Durham, N.C.). […] Dentin samples were placed individually in separate wells of a 96-sterile well plate (Fisherbrand, Fischer Scientific) with the pulpal side facing upwards. Then, 10 μl of an overnight E. faecalis culture (10^6 CFU/mL) dispersed in 190 μL of fresh BHI-YE growth media was added to each dentin specimen. […] The CFUs/mL were quantified using an automated colony counter (Synbiosis, Inc., Frederick, Md.). Summary statistics were calculated for the log-transformed data from each group. […]

Structure (SMILES)	effects on survival and attachment of stem cells from apical and dental pulp [1]	antibiofilm effect (log CFU/mL) ([2]; 2% CHX)	antibiofilm effect (log CFU/mL) ([2]; 1.5% NaOCl)
N=C(NCCCCCCNC(=N)NC(=N)Nc1ccc(Cl)cc1)NC(=N)Nc1ccc(Cl)cc1.O=C(O)[C@H](O)[C@@H](O)[C@H](O)[C@H](O)CO.O=C(O)[C@H](O)[C@@H](O)[C@H](O)[C@H](O)CO [CHX]	highly unfavorable effects	significant reduction in E. faecalis biofilm; also recorded: nearly eliminate the bacterial biofilm	–
OCl [NaOCl, sodium hypochlorite]	–	–	significant reduction and complete eradication of E. faecalis biofilm
